Test results: patent US20230115176A1 (Ra Pharmaceuticals, Inc., priority 2019, published 2023)
≈ marks a conversion by molar mass, not a printed value.

Experiments:
[1] = target: human C5 complement protein (Homo sapiens, UniProt P01031); assay: Surface plasmon resonance (SPR), immobilized human C5, 37° C. (Example 27, Table 31); assay type: binding; settings: lowest value obtained where a range of concentrations was analyzed (Table 31)
[2] = target: T1, Human C5 (Homo sapiens, UniProt P01031); assay: Red blood cell (RBC) hemolysis assay, luminescent (Example 28, Table 32); assay type: cell-based; settings: sheep EA cells, 1.5% C5-depleted human serum, 0.5 nM human C5, 1 hour at 37° C., luminescence (Table 32)
T1 construct: purchased Complement Technology
T1 sequence (P01031 19-1676): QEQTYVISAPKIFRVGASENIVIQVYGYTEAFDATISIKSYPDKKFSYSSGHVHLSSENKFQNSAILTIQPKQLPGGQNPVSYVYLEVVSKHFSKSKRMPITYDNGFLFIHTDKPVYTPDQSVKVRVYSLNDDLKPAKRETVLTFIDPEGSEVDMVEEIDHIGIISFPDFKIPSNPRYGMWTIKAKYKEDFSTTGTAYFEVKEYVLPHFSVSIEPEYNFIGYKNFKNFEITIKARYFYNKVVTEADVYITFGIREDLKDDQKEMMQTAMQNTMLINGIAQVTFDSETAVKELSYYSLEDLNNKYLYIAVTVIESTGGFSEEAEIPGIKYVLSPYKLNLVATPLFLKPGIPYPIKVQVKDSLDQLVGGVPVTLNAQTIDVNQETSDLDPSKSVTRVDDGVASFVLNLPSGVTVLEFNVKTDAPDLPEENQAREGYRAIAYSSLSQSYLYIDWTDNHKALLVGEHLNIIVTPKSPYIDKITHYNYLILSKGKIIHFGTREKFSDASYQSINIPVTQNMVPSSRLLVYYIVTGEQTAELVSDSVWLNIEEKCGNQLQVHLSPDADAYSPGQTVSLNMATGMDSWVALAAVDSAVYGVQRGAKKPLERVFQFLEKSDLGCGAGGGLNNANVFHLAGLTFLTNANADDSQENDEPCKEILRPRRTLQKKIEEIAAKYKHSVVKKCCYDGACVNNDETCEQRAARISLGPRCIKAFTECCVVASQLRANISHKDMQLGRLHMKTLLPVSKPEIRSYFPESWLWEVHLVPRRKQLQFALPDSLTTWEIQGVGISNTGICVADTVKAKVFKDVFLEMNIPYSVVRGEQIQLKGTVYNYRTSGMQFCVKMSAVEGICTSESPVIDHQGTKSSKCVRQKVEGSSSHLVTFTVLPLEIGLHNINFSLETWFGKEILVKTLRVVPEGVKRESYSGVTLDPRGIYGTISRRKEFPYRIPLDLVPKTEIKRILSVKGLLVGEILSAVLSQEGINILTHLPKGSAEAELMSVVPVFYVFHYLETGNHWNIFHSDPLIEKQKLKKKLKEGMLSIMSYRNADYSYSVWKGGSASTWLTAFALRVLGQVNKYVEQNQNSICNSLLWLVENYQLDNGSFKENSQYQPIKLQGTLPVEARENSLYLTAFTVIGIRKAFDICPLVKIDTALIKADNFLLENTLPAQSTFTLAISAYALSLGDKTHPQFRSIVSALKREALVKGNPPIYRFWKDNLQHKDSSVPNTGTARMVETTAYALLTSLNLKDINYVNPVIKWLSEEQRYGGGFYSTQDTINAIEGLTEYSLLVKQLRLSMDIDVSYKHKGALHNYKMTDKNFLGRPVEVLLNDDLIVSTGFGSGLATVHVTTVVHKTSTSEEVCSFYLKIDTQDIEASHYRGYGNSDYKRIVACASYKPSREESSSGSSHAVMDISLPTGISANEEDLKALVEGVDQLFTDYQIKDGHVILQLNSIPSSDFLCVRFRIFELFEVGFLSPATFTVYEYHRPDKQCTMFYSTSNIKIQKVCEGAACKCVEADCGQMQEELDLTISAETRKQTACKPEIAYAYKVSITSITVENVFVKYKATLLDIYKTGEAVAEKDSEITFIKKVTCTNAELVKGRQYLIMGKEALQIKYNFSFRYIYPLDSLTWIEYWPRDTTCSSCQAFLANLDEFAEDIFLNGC

[3] = Permeability assay, unidirectional transport, Papp (Example 30, Table 34); assay type: in vitro ADME, canine; settings: dog, pH 7.4; MDCK-WT cell monolayers, A-to-B, 3 μM test compound, 37° C., duplicate determinations
Method: (§1) Permeability assays were carried out to provide a preliminary indication of suitability for oral dosing and compound permeability across the blood brain barrier. Unidirectional and bidirectional compound transport across Madin Darby canine kidney (MDCK) cell monolayers was assessed. For unidirectional transport assessment, transport across MDCK wild type (MDCK-WT) cell monolayers was assessed. For bidirectional transport, transport across MDCK-MDR1 cell monolayers was assessed. MDCK-MDR1 cells express the MDR1 gene encoding the P-glycoprotein (P-gp) efflux protein.
(§2) MDCK-WT and MDCK-MDR1 cells were plated onto permeable polycarbonate supports in 12-well Costar transwell plates and allowed to grow and differentiate for 3 days. After 3 days in culture, the culture medium (DMEM supplemented with 10% FBS) was removed from both sides of the transwell inserts and cells were rinsed with warm HBSS. After the rinse step, the chambers were filled with warm transport buffer (HBSS containing 10 mM HEPES, 0.25% BSA, pH 7.4) and the plates were pre-incubated at 37° C. for 30 minutes prior to TEER (Trans Epithelial Electric Resistance) measurements.
(§3) The buffer in the donor chamber (apical side for A-to-B assay, basolateral side for B-to-A assay) was removed and replaced with the working solution (3 μM test compound and 10 μM for control compounds in transport buffer). The plates were then placed at 37° C. under light agitation. At designated time points (30, 60 and 90 min), an aliquot of transport buffer from the receiver chamber was removed and replenished with fresh transport buffer. Samples were quenched with ice-cold ACN containing internal standard and then centrifuged to pellet protein. Resulting supernatants were further diluted with 50/50 ACN/H2O (Atenolol diluted in just water) and submitted for LC-MS/MS analysis. Apparent permeability (Pap) values were calculated from duplicate determinations. Atenolol and propranolol were tested as low and […] permeability references.
Papp values indicate extent of compound permeation across monolayers.

[4] = target: T1, Human C5; assay: Hemolysis assay, luminescent, classical complement pathway (Example 4, Table 7); assay type: cell-based; settings: sheep EA cells, 1.5% C5-depleted human serum, 0.5 nM human C5, luminescence readout
Text: Numbers in parenthesis following the compound number indicate alternate enantiomers (as distinguished by retention time during chromatographical separation).

[5] = target: T1, Human C5; assay: Surface plasmon resonance (SPR), compounds on immobilized human C5 (Example 2, Table 5); assay type: binding; settings: lowest value where a range of compound concentrations were analyzed
[6] = target: purified human C5 (Homo sapiens, UniProt P01031); assay: Red blood cell hemolysis assay, optical, absorbance 412 nm (Example 3, Table 6); assay type: cell-based; settings: antibody-sensitized sheep erythrocytes, 1.5% human C5 depleted sera, 0.5 nM human C5; average where replicates
purified human C5, sequence (P01031 19-1676): as above

[7] = Kinetic solubility in PBS pH 7.4, HPLC-UV (Example 21, Table 27); assay type: physicochemical; settings: phosphate buffered saline, aqueous buffer, kinetic from dmso stock, 0.5 M PBS, shaken minimum 24 h at approximately 25° C., HPLC-UV 270 nm
Method in brief: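 Supernatant measured by HPLC-UV (270 nm) against a DMSO calibration curve of 15.6–500.0 μM after filtration. Triplicate samples were made from 10 mM DMSO stock in 0.05 M phosphate buffer pH 7.4 (5% DMSO) and shaken at least 24 h at about 25 °C.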

[8] = test system: P-glycoprotein (P-gp, MDR1); assay: Permeability assay, bidirectional transport, efflux ratio (Example 30, Table 34); assay type: in vitro ADME, canine; settings: dog, MDCK-MDR1, pH 7.4; read-out: MDCK-MDR efflux ratio
Method: as §1, §2, §3
Efflux ratios were calculated for bidirectional transport across MDCK-MDR1 cell monolayers as an indication of compound efflux by P-gp. The efflux ratio is calculated using the ratio of mean Papp values for B to A transport to mean Papp values for A to B transport [Papp(BA)/Papp(AB)].

[9] = target: T1, Human C5; assay: Red blood cell (RBC) hemolysis assay, luminescent (Example 13, Table 22); assay type: cell-based; settings: sheep EA cells, […] C5-depleted human serum, 0.5 nM human C5, 1 hour 37° C., luminescence
Text: Compound CU0136 is a racemic mixture of Compound CU0186 and CU0187. Numbers in parenthesis following compound numbers indicate alternate enantiomers (as distinguished by retention time during chromatographical separation).

human C5 complement protein, sequence (P01031 19-1676): as above

| Structure (SMILES) | Papp A→B at 3 μM [3] [×10⁻⁶ cm/s] | IC50 [4] [nM] | efflux ratio at 3 μM [8] | further results |
| --- | --- | --- | --- | --- |
| CCCCCOc1cc(N2CC[C@H](C)N(Cc3ccnc4c3c(Cl)cn4CC(=O)N3CCOC3)C2=O)ccc1OC [SC0113] | 17.9 |  |  | Kd [1]: 0.02 nM; IC50 [2]: 1.3 nM |
| CCCCCOc1cc(NC(=O)N(CC(=O)NCc2cccnc2)Cc2cc(F)ccc2OC)ccc1OC [SM0205] |  | 1290 |  |  |
| COc1ccccc1CNC(=O)Nc1ccc(OC)c(OCCCC(C)C)c1 [SM0006] |  | 37.6 |  | Kd [5]: 18 nM; IC50 [6]: 125 nM |
| CCCCCOc1cc(N2CCCN(Cc3ccc(CNC(C)=O)cc3OC)C2=O)ncc1OC [CU0579] | 23.5 |  | 31 | solubility kinetic [7]: 339 µM (≈ 164 µg/mL) |
| CCCCCOc1cc(N2CCCN(Cc3ccnc4c3c(Cl)cn4CC(=O)N3C[C@H]4C[C@@H]3CO4)C2=O)ccc1OC [CU0510] | 22.7 |  | 71 |  |
| CCCCCOc1cc(NC(=O)N(CC(=O)NC)Cc2cc(F)ccc2OC)ccc1OC [SM0212] |  | 867 |  |  |
| COc1cc(CC(=O)N(C)C)ccc1CN1CCCN(c2ccc(OC)c(OCCCC(C)(F)F)c2)C1=O [CU0140] | 26 |  | 63 | IC50 [9]: 15.8 nM; solubility kinetic [7]: 404 µM (≈ 216 µg/mL) |
| CCCCCOc1cc(NC(=O)N2CCC[C@@H]2c2ccccc2Cl)c(CNC(=O)/C=C/CN(C)C)cc1OC [SM0202] |  | 240 |  |  |
| COc1ccc(N2CCCN(Cc3ccnc4c3c(Cl)cn4CC(=O)N(C)C)C2=O)cc1Br [CU0689] | 23.8 |  | 8 |  |
| CCCCCOc1cc(NC(=O)N(CCC(=O)O)Cc2cc(F)ccc2OC)ccc1OC [SM0214] |  | 175 |  |  |
| C#CC(=O)NCc1cc(OC)c(OCCCCC)cc1NC(=O)N1CCC[C@@H]1c1ccccc1Cl [SM0201] |  | 89.5 |  |  |
| CCCCCOc1cc(NC(=O)N(CCC(=O)NCc2ccncc2)Cc2cc(F)ccc2OC)ccc1OC [SM0215] |  | 244 |  |  |
| CCCCCOc1cc(NC(=O)N(CC(=O)N2CCOCC2)Cc2cc(F)ccc2OC)ccc1OC [SM0210] |  | 2120 |  |  |
| CCCCCOc1cc(NC(=O)N(CC(=O)NCCN2CCCC2)Cc2cc(F)ccc2OC)ccc1OC [SM0206] |  | 2060 |  |  |
| CCCCCOc1cc(N2CC[C@H](C)N(Cc3ccnc4c3c(Cl)cn4CC(=O)N3CC[C@H](N4CCOCC4)C3)C2=O)ccc1OC [SC0100] | 14.3 |  | 62 | IC50 [2]: 0.9 nM |
| CCCCCOc1cc(NC(=O)N(CCC(=O)N(C)C)Cc2cc(F)ccc2OC)ccc1OC [SM0216] |  | 199 |  |  |
| CCCCCOc1cc(NC(=O)N(CC(=O)NC2CCN(C(C)=O)CC2)Cc2cc(F)ccc2OC)ccc1OC [SM0209] |  | 1140 |  |  |
| CCCCCOc1cc(NC(=O)N(CC(N)=O)Cc2cc(F)ccc2OC)ccc1OC [SM0213] |  | 903 |  |  |
| COc1ccc(N2CC[C@H](C)N(Cc3cccc4c3c(Cl)cn4CC(=O)N3CCOCC3)C2=O)cc1OCCCC1CC1 [SC0115] |  |  |  | solubility kinetic [7]: < 10 µM; Kd [1]: 0.18 nM; IC50 [2]: 1.4 nM |
| CCCCCOc1cc(N2CC(CO)CN(Cc3ccc(CC(=O)N4CCNC(=O)C4)cc3OC)C2=O)ccc1OC (centres unmarked) [SC0178] |  |  |  | solubility kinetic [7]: 443 µM (≈ 258 µg/mL); Kd [1]: 1.07 nM; IC50 [2]: 4.8 nM |
| CCCCCOc1cc(N2CCCN(Cc3ccc(CNC(C)=O)cc3OC)C2=O)ccc1OC [CU0160] | 21.6 |  | 61 | IC50 [9]: 23.5 nM; solubility kinetic [7]: 413 µM (≈ 200 µg/mL) |
| COc1cc(CNC(C)=O)ccc1CN1CCCN(c2ccc(OC)c(OCCCC3CC3)c2)C1=O [CU0501] | 24.2 |  | 60 | solubility kinetic [7]: 195 µM (≈ 96.6 µg/mL) |
